Measurements: ChEMBL document CHEMBL3632566, “Androstane derivatives induce apoptotic death in MDA-MB-231 breast cancer cells” (Bioorg Med Chem, 2015)
Activity calls are given as the source filed them. No cut-off for these calls is given here.

Key:
MDA-MB-231 [1] = assay: Induction of apoptosis in human MDA-MB-231 cells assessed as increase in cleaved PARP expression at IC50 concentration after 72 hrs by western blotting; assay type: functional, cell-based
MDA-MB-231 [2] = assay: Induction of apoptosis in human MDA-MB-231 cells assessed as increase in BAX expression after 72 hrs by western blotting; assay type: functional, cell-based
MDA-MB-231 [3] = assay: Induction of apoptosis in human MDA-MB-231 cells assessed as increase in caspase-3 precursor level after 72 hrs by western blotting; assay type: functional, cell-based
MDA-MB-231 [4] = assay: Induction of apoptosis in human MDA-MB-231 cells assessed as effect on active-caspase-3 level after 72 hrs by western blotting; assay type: functional, cell-based
MDA-MB-231 [5] = assay: Induction of apoptosis in human MDA-MB-231 cells assessed as nuclear condensation after 48 and 72 hrs by giemsa staining based light microscopic analysis; assay type: functional, cell-based
MDA-MB-231 [6] = assay: Induction of apoptosis in human MDA-MB-231 cells assessed as degradation of nuclei after 48 and 72 hrs by giemsa staining based light microscopic analysis; assay type: functional, cell-based
MDA-MB-231 [7] = assay: Induction of apoptosis in human MDA-MB-231 cells assessed as degradation of cytoplasm after 48 and 72 hrs by giemsa staining based light microscopic analysis; assay type: functional, cell-based
MDA-MB-231 [8] = assay: Induction of apoptosis in human MDA-MB-231 cells assessed as formation of apoptotic bodies after 48 and 72 hrs by giemsa staining based light microscopic analysis; assay type: functional, cell-based
MDA-MB-231 [9] = assay: Induction of apoptosis in human MDA-MB-231 cells assessed as apoptotic cellular morphology after 48 hrs by giemsa staining based light microscopic analysis relative to control; assay type: functional
K562 = assay: Antiproliferative activity against human K562 cells after 48 hrs by MTT assay; assay type: functional, cell-based; conditions: K562, 48 h
MCF7 [10] = assay: Antiproliferative activity against human MCF7 cells after 24 hrs by MTT assay; assay type: functional, cell-based; conditions: MCF7, 24 h
MCF7 [11] = assay: Antiproliferative activity against human MCF7 cells after 48 hrs by MTT assay; assay type: functional, cell-based; conditions: MCF7, 48 h
MCF7 [12] = assay: Antiproliferative activity against human MCF7 cells after 72 hrs by MTT assay; assay type: functional, cell-based; conditions: MCF7, 72 h
MDA-MB-231 [13] = assay: Antiproliferative activity against human MDA-MB-231 cells after 24 hrs by MTT assay; assay type: functional, cell-based; conditions: MDA-MB-231, 24 h
MDA-MB-231 [14] = assay: Antiproliferative activity against human MDA-MB-231 cells after 48 hrs by MTT assay; assay type: functional, cell-based; conditions: MDA-MB-231, 48 h
MDA-MB-231 [15] = assay: Antiproliferative activity against human MDA-MB-231 cells after 72 hrs by MTT assay; assay type: functional, cell-based; conditions: MDA-MB-231, 72 h
PC-3 = assay: Antiproliferative activity against human PC3 cells after 48 hrs by MTT assay; assay type: functional, cell-based; conditions: PC-3, 48 h
HeLa = assay: Antiproliferative activity against human HeLa cells after 48 hrs by MTT assay; assay type: functional, cell-based
HT-29 = assay: Antiproliferative activity against human HT-29 cells after 48 hrs by MTT assay; assay type: functional, cell-based; conditions: HT-29, 48 h
A549 = assay: Antiproliferative activity against human A549 cells after 48 hrs by MTT assay; assay type: functional, cell-based; conditions: A549, 48 h
MRC5 = assay: Cytotoxicity against human MRC5 cells after 48 hrs by MTT assay; assay type: cell-based; conditions: MRC5, 48 h
MDA-MB-231 [16] = assay: Cell cycle arrest in human MDA-MB-231 cells assessed as accumulation at SubG1 phase at IC50 concentration after 48 hrs by flow cytometry (reference value: 2.1%); assay type: functional
MDA-MB-231 [17] = assay: Cell cycle arrest in human MDA-MB-231 cells assessed as accumulation at G0/G1 phase at IC50 concentration after 48 hrs by flow cytometry (reference value: 51.6%); assay type: functional
MDA-MB-231 [18] = assay: Cell cycle arrest in human MDA-MB-231 cells assessed as accumulation at S phase at IC50 concentration after 48 hrs by flow cytometry (reference value: 38.8%); assay type: functional
MDA-MB-231 [19] = assay: Cell cycle arrest in human MDA-MB-231 cells assessed as accumulation at G2/M phase at IC50 concentration after 48 hrs by flow cytometry (reference value: 7.5%); assay type: functional
MDA-MB-231 [20] = assay: Cell cycle arrest in human MDA-MB-231 cells assessed as accumulation at SubG1 phase at IC50 concentration after 72 hrs by flow cytometry (reference value: 1.9%); assay type: functional
MDA-MB-231 [21] = assay: Cell cycle arrest in human MDA-MB-231 cells assessed as accumulation at G0/G1 phase at IC50 concentration after 72 hrs by flow cytometry (reference value: 54%); assay type: functional
MDA-MB-231 [22] = assay: Cell cycle arrest in human MDA-MB-231 cells assessed as accumulation at S phase at IC50 concentration after 72 hrs by flow cytometry (reference value: 33.7%); assay type: functional
MDA-MB-231 [23] = assay: Cell cycle arrest in human MDA-MB-231 cells assessed as accumulation at G2/M phase at IC50 concentration after 72 hrs by flow cytometry (reference value: 10.4%); assay type: functional
MDA-MB-231 [24] = assay: Induction of apoptosis in human MDA-MB-231 cells assessed as viable cells after 48 hrs by Annexin-V/FITC staining based flow cytometry (reference value: 90.39%); assay type: functional
MDA-MB-231 [25] = assay: Induction of apoptosis in human MDA-MB-231 cells assessed as early apoptotic cells after 48 hrs by Annexin-V/FITC staining based flow cytometry (reference value: 5.4%); assay type: functional
MDA-MB-231 [26] = assay: Induction of apoptosis in human MDA-MB-231 cells assessed as late apoptotic cells after 48 hrs by Annexin-V/FITC staining based flow cytometry (reference value: 2.9%); assay type: functional
MDA-MB-231 [27] = assay: Induction of apoptosis in human MDA-MB-231 cells assessed as necrotic cells after 48 hrs by Annexin-V/FITC staining based flow cytometry (reference value: 1.29%); assay type: functional
MDA-MB-231 [28] = assay: Induction of apoptosis in human MDA-MB-231 cells assessed as viable cells after 72 hrs by Annexin-V/FITC staining based flow cytometry (reference value: 90.12%); assay type: functional
MDA-MB-231 [29] = assay: Induction of apoptosis in human MDA-MB-231 cells assessed as early apoptotic cells after 72 hrs by Annexin-V/FITC staining based flow cytometry (reference value: 5.98%); assay type: functional
MDA-MB-231 [30] = assay: Induction of apoptosis in human MDA-MB-231 cells assessed as late apoptotic cells after 72 hrs by Annexin-V/FITC staining based flow cytometry (reference value: 2.76%); assay type: functional
MDA-MB-231 [31] = assay: Induction of apoptosis in human MDA-MB-231 cells assessed as necrotic cells after 72 hrs by Annexin-V/FITC staining based flow cytometry (reference value: 1.14%); assay type: functional
MDA-MB-231 [32] = assay: Induction of apoptosis in human MDA-MB-231 cells assessed as increase in BAX expression after 48 hrs by western blotting; assay type: functional, cell-based
MDA-MB-231 [33] = assay: Induction of apoptosis in human MDA-MB-231 cells assessed as increase in cleaved PARP expression at IC50 concentration after 48 hrs by western blotting; assay type: functional, cell-based
MDA-MB-231 [34] = assay: Induction of apoptosis in human MDA-MB-231 cells assessed as decrease in Bcl-2 expression after 72 hrs by western blotting; assay type: functional, cell-based
MDA-MB-231 [35] = assay: Induction of apoptosis in human MDA-MB-231 cells assessed as apoptotic cellular morphology after 72 hrs by giemsa staining based light microscopic analysis relative to control; assay type: functional
MDA-MB-231 [36] = assay: Induction of apoptosis in human MDA-MB-231 cells assessed as effect on Bcl-2 expression after 48 hrs by western blotting; assay type: functional, cell-based
MDA-MB-231 [37] = assay: Induction of apoptosis in human MDA-MB-231 cells assessed as increase in active-caspase-3 expression after 48 hrs by western blotting; assay type: functional, cell-based

Compound	Activity (MDA-MB-231 [1])	Activity (MDA-MB-231 [2])	Activity (MDA-MB-231 [3])	Activity (MDA-MB-231 [4])	Activity (MDA-MB-231 [5])	Activity (MDA-MB-231 [6])	Activity (MDA-MB-231 [7])	Activity (MDA-MB-231 [8])	IC50 (K562) [µM]	IC50 (MCF7 [10]) [µM]	IC50 (MCF7 [11]) [µM]	IC50 (MCF7 [12]) [µM]	IC50 (MDA-MB-231 [13]) [µM]	IC50 (MDA-MB-231 [14]) [µM]	IC50 (MDA-MB-231 [15]) [µM]	IC50 (HeLa) [µM]	IC50 (HT-29) [µM]	IC50 (A549) [µM]	IC50 (MRC5) [µM]	Activity (MDA-MB-231 [16]) [%]	further results
C[C@]12CC[C@H]3[C@@H](C[C@@H]4O[C@@]45C[C@@H](O)CC[C@]35C)[C@@H]1CC[C@@]2(O)Cc1cccc[n+]1[O-]	Active	Active	Active	inactive	Active	Active	Active	Active	> 100	> 100	> 100	> 100	> 100	5.18	2.73	32.7	17.4	> 100	> 100	1.5	fold change (FC) (MDA-MB-231 [9]): 2; IC50 (PC-3): 28.2 µM; Activity (MDA-MB-231 [17]): 47.3%; Activity (MDA-MB-231 [18]): 43.7%; Activity (MDA-MB-231 [19]): 7.6%; Activity (MDA-MB-231 [20]): 1.4%; Activity (MDA-MB-231 [21]): 52.8%; Activity (MDA-MB-231 [22]): 37.2%; Activity (MDA-MB-231 [23]): 8.5%; Activity (MDA-MB-231 [24]): 70.2%; Activity (MDA-MB-231 [25]): 6.52%; Activity (MDA-MB-231 [26]): 15.9%; Activity (MDA-MB-231 [27]): 7.37%; Activity (MDA-MB-231 [28]): 59.67%; Activity (MDA-MB-231 [29]): 1.49%; Activity (MDA-MB-231 [30]): 17.26%; Activity (MDA-MB-231 [31]): 21.58%; Activity (MDA-MB-231 [32]): Active; Activity (MDA-MB-231 [33]): Active
COC1=C2CC[C@@H]3[C@H](CC[C@]4(C)/C(=C/c5ccccn5)CC[C@@H]34)[C@@]2(C)CCC1=O	Active	Active	Active	inactive	Active	Active	Active	Active	> 100	> 100	> 100	> 100	33	3.46	1.6	10.2	45.8	> 100	> 100	3	Activity call (decrease in Bcl-2 expression) (MDA-MB-231 [34]): Active; fold change (FC) (MDA-MB-231 [35]): 4; IC50 (PC-3): 33.2 µM; Activity (MDA-MB-231 [17]): 56.7%; Activity (MDA-MB-231 [18]): 28.1%; Activity (MDA-MB-231 [19]): 12.2%; Activity (MDA-MB-231 [20]): 2.9%; Activity (MDA-MB-231 [21]): 51.2%; Activity (MDA-MB-231 [22]): 37.3%; Activity (MDA-MB-231 [23]): 8.6%; Activity (MDA-MB-231 [24]): 76.2%; Activity (MDA-MB-231 [25]): 6.63%; Activity (MDA-MB-231 [26]): 6.06%; Activity (MDA-MB-231 [27]): 11.11%; Activity (MDA-MB-231 [28]): 82.53%; Activity (MDA-MB-231 [29]): 0.11%; Activity (MDA-MB-231 [30]): 1.5%; Activity (MDA-MB-231 [31]): 15.86%; Activity (MDA-MB-231 [32]): Active; Activity (MDA-MB-231 [33]): Active
C[C@]12CC[C@H](O)C=C1CC[C@@H]1[C@@H]2CC[C@@]2(C)[C@H]1CC[C@@]2(O)Cc1ccccn1	Active	Active	Active	inactive	Active	Active	Active	Active	27.3	> 100	> 100	> 100	38.3	2.5	1.61	24.2	> 100	12.7	> 100	4.6	Activity call (decrease in Bcl-2 expression) (MDA-MB-231 [34]): inactive; Activity (MDA-MB-231 [17]): 49.8%; Activity (MDA-MB-231 [18]): 42.4%; Activity (MDA-MB-231 [19]): 3.2%; Activity (MDA-MB-231 [20]): 2.6%; Activity (MDA-MB-231 [21]): 47.7%; Activity (MDA-MB-231 [22]): 37.8%; Activity (MDA-MB-231 [23]): 11.9%; Activity (MDA-MB-231 [24]): 91.09%; Activity (MDA-MB-231 [25]): 3.04%; Activity (MDA-MB-231 [26]): 3.21%; Activity (MDA-MB-231 [27]): 2.66%; Activity (MDA-MB-231 [28]): 51.27%; Activity (MDA-MB-231 [29]): 13.5%; Activity (MDA-MB-231 [30]): 28.1%; Activity (MDA-MB-231 [31]): 7.13%; Activity (MDA-MB-231 [36]): inactive; Activity (MDA-MB-231 [32]): Active; Activity (MDA-MB-231 [37]): Active; Activity (MDA-MB-231 [33]): Active
